Reference: ChEMBL document CHEMBL1132706 (J Med Chem, 1999)
pEC50, pIC50: −log10 of the molar value. Each block holds one molecule with its values, some of them ahead of it.

Experiments:
[1] = molecular target: T1, Human immunodeficiency virus type 1 integrase (Human immunodeficiency virus 1, UniProt Q7ZJM1)
Description: Inhibition of HIV-1 integrase by radiolabeled oligonucleotide-based assay integration

[2] = molecular target: T1, Human immunodeficiency virus type 1 integrase; remark: listed apart in the source
Description: Compound was evaluated for the inhibitory concentration against HIV-1 integrase by radiolabeled oligonucleotide-based assay 3''-processing

[3] = tested on: CEM-SS; assay: Compound was evaluated for the cytoprotection of CEM-SS cells by XTT cytoprotection assay through the NCI AIDS Screen; Not reached due to cytotoxicity; assay type: functional, cell-based, Homo sapiens
[4] = tested on: CEM-SS; assay: Compound was evaluated for the cytoprotection by XTT cytoprotection assay through the NCI AIDS Screen; assay type: functional, cell-based; settings: Homo sapiens
[5] = Compound was evaluated for the relative inhibition of Viral infection in MAGI cells at concentration 1 mM, using assay 1; assay type: functional, Homo sapiens
[6] = tested on: CEM-SS; assay: Concentration of compound required to protect 50% of CEM-SS cells against retroviral cytopathic effects of HIV-RF on 6th day at dil 1:200; assay type: functional, cell-based; settings: Homo sapiens
[7] = Compound was evaluated for the relative Viral infection in MAGI cells at concentration 100 mM, using assay 2
[8] = tested on: CEM-SS; assay: Compound was evaluated for the effect of Order of Addition on Cytoprotection against HIV1-RF at dilution 333, Pretreat and add 10 uM; assay type: functional, Homo sapiens
[9] = tested on: MT4; assay: Concentration of compound required to protect 50% of MT-4 cells against retroviral cytopathic effects of HIV-2 (ROD); assay type: functional, cell-based; settings: Homo sapiens
[10] = tested on: CEM-SS; assay: Compound was evaluated for the effect of Order of Addition on Cytoprotection against HIV1-RF at dilution 1000, Pretreat and add 1 uM; assay type: functional, Homo sapiens
[11] = tested on: CEM-SS; assay: Concentration of compound required to protect 50% of CEM-SS cells against retroviral cytopathic effects of HIV-RF on 6th day at dil 1:400; assay type: functional, cell-based; settings: Homo sapiens
[12] = Compound was evaluated for the relative inhibition of Viral infection in MAGI cells at concentration 10mM, using assay 2; assay type: functional, Homo sapiens
[13] = tested on: CEM-SS; assay: Compound was evaluated for the effect of Order of Addition on Cytoprotection against HIV1-RF at dilution 333, Add at infection; assay type: functional, Homo sapiens
[14] = tested on: CEM-SS; assay: Compound was evaluated for the effect of Order of Addition on Cytoprotection against HIV1-RF at dilution 100, Add at infection; assay type: functional, Homo sapiens
[15] = tested on: CEM-SS; assay: Compound was evaluated for the effect of Order of Addition on Cytoprotection against HIV1-RF at dilution 1000, Add at infection; assay type: functional, Homo sapiens
[16] = tested on: CEM-SS; assay: Concentration of compound required to protect 50% of CEM-SS cells against retroviral cytopathic effects of HIV-RF on 6th day at dil 1:100; assay type: functional, cell-based; settings: Homo sapiens
[17] = tested on: CEM-SS; assay: Compound was evaluated for the cytoprotection of CEM-SS cells by XTT cytoprotection assay through the NCI AIDS Screen; assay type: functional, cell-based; settings: Homo sapiens
[18] = tested on: CEM-SS; assay: Concentration of compound required to protect 50% of CEM-SS cells against retroviral cytopathic effects of HIV-RF on 9th day at dil 1:100; assay type: functional, cell-based; settings: Homo sapiens
[19] = tested on: CEM-SS; assay: Compound was evaluated for the effect of Order of Addition on Cytoprotection against HIV1-RF at dilution 100, Pretreat with 100 uM; assay type: functional, Homo sapiens
[20] = tested on: CEM-SS; assay: Concentration of compound required to protect 50% of CEM-SS cells against retroviral cytopathic effects of HIV-RF on 9th day at dil 1:400; assay type: functional, cell-based; settings: Homo sapiens
[21] = tested on: CEM-SS; assay: Compound was evaluated for the effect of Order of Addition on Cytoprotection against HIV1-RF at dilution 333,Pretreat and add 1 uM; assay type: functional, Homo sapiens
[22] = Compound was evaluated for the relative inhibition of Viral infection in MAGI cells at concentration 0.1 uM, using assay 3
[23] = tested on: CEM-SS; assay: Concentration of compound required to protect 50% of CEM-SS cells against retroviral cytopathic effects of HIV-RF on 3rd day at dil 1:100; assay type: functional, cell-based; settings: Homo sapiens
[24] = tested on: CEM-SS; assay: Concentration of compound required to protect 50% of CEM-SS cells against retroviral cytopathic effects of HIV-RF on 9th day at dil 1:50; assay type: functional, cell-based; settings: Homo sapiens
[25] = Compound was evaluated for the relative inhibition of Viral infection in MAGI cells at concentration 10 mM, using assay 1; assay type: functional, Homo sapiens
[26] = tested on: MT4; assay: Concentration of compound required to protect 50% of MT-4 cells against retroviral cytopathic effects of HIV-1 ([…]); assay type: functional, cell-based; settings: Homo sapiens
[27] = tested on: CEM-SS; assay: Compound was evaluated for the effect of Order of Addition on Cytoprotection against HIV1-RF at dilution 333, Pretreat with 100 uM
[28] = tested on: CEM-SS; assay: Concentration of compound required to protect 50% of CEM-SS cells against retroviral cytopathic effects of HIV-RF on 6th day at dil 1:50; assay type: functional, cell-based; settings: Homo sapiens
[29] = tested on: CEM-SS; assay: Compound was evaluated for the effect of Order of Addition on Cytoprotection against HIV1-RF at dilution 100, Pretreat and add 10 uM; assay type: functional, Homo sapiens
[30] = tested on: MT4; assay: Concentration of compound required to reduce MT-4 cell viability by 50%; assay type: functional, cell-based; settings: Homo sapiens
[31] = Compound was evaluated for the relative inhibition of Viral infection in MAGI cells at concentration 10 mM, using assay 3; assay type: functional, Homo sapiens
[32] = tested on: CEM-SS; assay: Compound was evaluated for the effect of Order of Addition on Cytoprotection against HIV1-RF at dilution 100, Pretreat and add 1 uM; assay type: functional, Homo sapiens
[33] = tested on: CEM-SS; assay: Compound was evaluated for the effect of Order of Addition on Cytoprotection against HIV1-RF at dilution 1000, Pretreat with 100 uM; assay type: functional, Homo sapiens
[34] = tested on: CEM-SS; assay: Concentration of compound required to protect 50% of CEM-SS cells against retroviral cytopathic effects of HIV-RF on 3rd day at dil 1:50; assay type: functional, cell-based; settings: Homo sapiens
[35] = tested on: CEM-SS; assay: Concentration of compound required to protect 50% of CEM-SS cells against retroviral cytopathic effects of HIV-RF on 3rd day at dil 1:200; assay type: functional, cell-based; settings: Homo sapiens
[36] = tested on: CEM-SS; assay: Concentration of compound required to protect 50% of CEM-SS cells against retroviral cytopathic effects of HIV-RF on 9th day at dil 1:200; assay type: functional, cell-based; settings: Homo sapiens
[37] = Compound was evaluated for the relative inhibition of Viral infection in MAGI cells at concentration 100 mM, using assay 1; assay type: functional, Homo sapiens
[38] = tested on: CEM-SS; assay: Compound was evaluated for the effect of Order of Addition on Cytoprotection against HIV1-RF at dilution 1000, Pretreat and add 10 uM; assay type: functional, Homo sapiens

T1 sequence (Q7ZJM1 whole entry): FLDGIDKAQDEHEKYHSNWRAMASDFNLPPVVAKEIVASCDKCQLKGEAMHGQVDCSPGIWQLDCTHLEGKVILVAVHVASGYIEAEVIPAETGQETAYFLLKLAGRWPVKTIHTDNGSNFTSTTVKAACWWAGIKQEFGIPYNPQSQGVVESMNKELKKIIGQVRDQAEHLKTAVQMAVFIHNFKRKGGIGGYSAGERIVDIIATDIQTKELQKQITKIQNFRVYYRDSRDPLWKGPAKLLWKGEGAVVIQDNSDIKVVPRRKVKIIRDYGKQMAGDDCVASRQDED

SMILES: COC(=O)[C@@H](CNC(=O)/C=C/c1ccc(OC(C)=O)c(OC(C)=O)c1)NC(=O)/C=C/c1ccc(OC(C)=O)c(OC(C)=O)c1
pIC50 [1]: 5.00 | pIC50 [2]: 4.96

SMILES: COc1ccc(/C=C/C(=O)NC[C@@H](NC(=O)/C=C/c2ccc(OC)c(OC)c2)C(=O)O)cc1OC
pIC50 [1]: < 3.00 | pIC50 [2]: < 3.00

SMILES: COC(=O)C(COC(=O)/C=C/c1ccc(OC(C)=O)c(OC(C)=O)c1)NC(C)=O (configuration not stated)
pIC50 [1]: < 3.48 | pIC50 [2]: < 3.48

SMILES: CC(=O)Oc1ccc(/C=C/C(=O)O[C@H](C(=O)O)[C@H](OC(=O)/C=C/c2ccc(OC(C)=O)c(OC(C)=O)c2)C(=O)O)cc1OC(C)=O
relative infection [5]: 83% | pEC50 [6]: 4.65 | relative infection [7]: 5% | Control [8]: 39% | pEC50 [9]: 5.29 | Control [10]: 17% | pEC50 [11]: 4.71 | relative infection [12]: 76% | Control [13]: 81% | Control [14]: 141% | pIC50 [1]: 5.34 | Control [15]: 60% | pIC50 [2]: 4.48 | pEC50 [16]: < 4.30 | pEC50 [17]: 4.68 | pIC50 [17]: 4.64 | pEC50 [18]: < 4.30 | Control [19]: 120% | pEC50 [20]: 4.53 | Control [21]: 57% | relative infection [22]: 91% | pEC50 [23]: < 4.30 | pEC50 [24]: < 4.30 | relative infection [25]: 88% | pEC50 [26]: 5.41 | Control [27]: 163% | pEC50 [28]: < 4.30 | Control [29]: 149% | pIC50 [30]: 4.22 | relative infection [31]: 55% | Control [32]: 100% | Control [33]: 51% | pEC50 [34]: < 4.30 | pEC50 [35]: < 4.30 | pEC50 [36]: < 4.30 | relative infection [37]: 6% | Control [38]: 38%

SMILES: CC(=O)NC(COC(=O)/C=C/c1ccc(O)c(O)c1)C(=O)O (configuration not stated)
pIC50 [1]: 3.95 | pIC50 [2]: 3.48

SMILES: CC(=O)Oc1ccc(/C=C/C(=O)OCCOC(=O)/C=C/c2ccc(OC(C)=O)c(OC(C)=O)c2)cc1OC(C)=O
pIC50 [1]: < 4.00 | pIC50 [2]: < 4.00 | pIC50 [17]: 5.17

SMILES: COC(=O)[C@@H](CNC(=O)/C=C/c1ccc(OC)c(OC)c1)NC(=O)/C=C/c1ccc(OC)c(OC)c1
pIC50 [1]: < 3.00 | pIC50 [2]: < 3.00

Molecules with a higher pIC50 [1], results first:

pIC50 [1]: 5.55 | pIC50 [2]: 5.68
SMILES: CC(=O)Oc1ccc(/C=C/C(=O)OCC(OC(=O)/C=C/c2ccc(OC(C)=O)c(OC(C)=O)c2)C(=O)O)cc1OC(C)=O (configuration not stated)

pIC50 [1]: 6.40 | pIC50 [2]: 6.40
SMILES: O=C(/C=C/c1ccc(O)c(O)c1)OCCOC(=O)/C=C/c1ccc(O)c(O)c1
EC50 [3]: Not reached | pIC50 [4]: 5.00

pIC50 [1]: 5.39 | pIC50 [2]: 5.39
SMILES: CC(=O)Oc1ccc(/C=C/C(=O)NCC(NC(=O)/C=C/c2ccc(OC(C)=O)c(OC(C)=O)c2)C(=O)O)cc1OC(C)=O (configuration not stated)

pIC50 [1]: 5.49 | pIC50 [2]: 5.60
SMILES: COC(=O)C(COC(=O)/C=C/c1ccc(OC(C)=O)c(OC(C)=O)c1)NC(=O)/C=C/c1ccc(OC(C)=O)c(OC(C)=O)c1 (configuration not stated)

pIC50 [1]: 5.77 | pIC50 [2]: 5.38
SMILES: O=C(/C=C/c1ccc(O)c(O)c1)OCC(OC(=O)/C=C/c1ccc(O)c(O)c1)C(=O)O (configuration not stated)
